ChEMBL document CHEMBL1148607, “A minimalist design approach to antimicrobial agents based on a thionin template” (J Med Chem, 2006)
Non-standard residues stand in square brackets, D forms with d. Residues, ends and D or L forms follow the SMILES beside them. GABA = NCCCC(=O)O

Experiments:
Type in all cases: functional, organism-based
[1] = system: Xanthomonas campestris; experiment: Antibacterial activity against Xanthomonas campestris
[2] = system: Botrytis cinerea; experiment: Antifungal activity against Botrytis cinerea
[3] = system: Sinorhizobium meliloti; experiment: Antibacterial activity against Rhizobium meliloti
[4] = system: Clavibacter michiganensis; experiment: Antibacterial activity against Clavibacter michiganensis
[5] = system: Plectosphaerella cucumerina; experiment: Antifungal activity against Plectosphaerella cucumerina

| EC50 [1] [µM] | EC50 [2] [µM] | EC50 [3] [µM] | EC50 [4] [µM] | EC50 [5] [µM] | Molecule |
| --- | --- | --- | --- | --- | --- |
| > 50 | 4.1 | > 50 | 5.13 | 15.7 | CC[C@H](C)[C@H](NC(=O)[C@H](CCC(=O)O)NC(=O)[C@@H](N)CCCN=C(N)N)C(=O)NCCCC(=O)N[C@@H](C)C(=O)N[C@@H](CCCCN)C(=O)N[C@@H](CCCCN)C(=O)NCCCC(=O)N[C@@H](CCCN=C(N)N)C(=O)O (H-REI[GABA]AKK[GABA]R-OH) |
| 1.03 | 0.08 | 2.07 | 0.03 | 0.16 | H-THRTRPALAARGASNCYSTYRASNVALCYSARGLEPRARGGLIIECYSALALYSLYSCYS-OH (cysteines drawn unpaired) |
| > 50 | 1.6 | > 50 | 3.27 | 3.97 | CC(C)C[C@H](NC(=O)[C@H](CCCN=C(N)N)NC(=O)CCCNC(=O)[C@@H](NC(=O)[C@H](CC(N)=O)NC(=O)[C@H](Cc1ccc(O)cc1)NC(=O)CCCNC(=O)[C@H](CC(N)=O)NC(=O)[C@H](CCCN=C(N)N)NC(=O)[C@H](C)NC(=O)[C@H](Cc1c[nH]c2ccccc12)NC(=O)[C@@H](N)[C@@H](C)O)C(C)C)C(=O)N1CCC[C@H]1C(=O)O (H-TWARN[GABA]YNV[GABA]RLP-OH) |
